pIC50: −log10 of the molar value. Read-outs that look alike come from different tables or passages of the source.
Assays:
Assay type in all cases: cell-based
CaCo-2 cells [1] = assay: Inhibition of CaCo-2 colon carcinoma cell proliferation (WST-1, Example 1); conditions: Homo sapiens, 24 hours incubation
Description: The effect of N,N,-diethyl-8,8-dipropyl-2-azaspiro[4,5]decane-2-propanamine dimaleate (Compound 1) on proliferation of human colon carcinoma cells T84 and CaCo-2 was evaluated in the following manner. Cell proliferation was measured by WST-1 dye conversion to Formazan assay using the proliferation kit from BioVision, CA. The procedure used was essentially as described in the manufacture's instructions. Briefly, cells were grown for 7 days until they formed semi-confluent monolayers. On day 7, cells were trypsinized and resuspended in 96-well plates at a concentration of approximately 40,000 cells/well and allowed to grow for 24 hours at 37° C.
Subsequently, fresh media containing increasing concentrations of Compound 1, as indicated in the FIG. 1, were added and assay plates were further incubated for an additional period of 24 hours. A solution of 5 μl of WST-1 dye per well was added and plates were read after 4 hours at 440 and 600 nm using an ELISA plate reader. The absorbance at 440 minus that at 600 nm is directly proportion to the number of proliferating cells. All samples were measured in triplicate and results were expressed as an average of three determinations.

CaCo-2 cells [2] = assay: Inhibition of proliferation of CaCo-2 cells (WST-1, Example 8); conditions: Homo sapiens, 12 hours
Description: The effect of N,N,-diethyl-8,8-dipropyl-2-azaspiro[4,5]decane-2-propanamine dimaleate (Compound 1) and other analogs (structures shown in Table 7) on proliferation of CaCo-2, a human colon carcinoma cell line, were evaluated in the following manner. Cell proliferation was measured by WST-1 dye conversion to Formazan assay using a proliferation kit from BioVision, CA. The procedure used was essentially the same as described in the manufacture's instructions. Briefly, cells were grown for 7 days until they formed semi-confluent monolayers. On day 7, cells were trypsinized and re-suspended in 96-well plates at a concentration of approximately 50,000 cells/well. […] A solution of 10 μl of WST-1 dye per well was added and plates were read after 4 hours at 440 and 600 nm using an ELISA plate reader. The absorbance at 440-600 nm is directly proportion to the number of proliferating cells. All samples were measured in duplicate and results were expressed as an average of two determinations.

IGROV1 = assay: NCI in vitro SRB assay, Ovarian Cancer
Description: (§1) An in vitro assay which tested the ability of N,N,-diethyl-8,8-dipropyl-2-azaspiro[4,5]decane-2-propanamine dimaleate (Compound 1) to inhibit the growth of known cancer cell lines was performed by the National Cancer Institute in accordance with standard procedures. See: Lin, Z. X., Hoult, J. R., and Raman, A. Sulphorhodamine B assay for measuring proliferation of a pigmented melanocyte cell line and its application to the evaluation of crude drugs used in the treatment of vitiligo. J Ethnopharmacol. 66: 141-150, 1999. Briefly, selected tumor cell lines were cultured in media containing five different concentrations of Compound 1. After 48 hours of continuous exposure, a sulforhodamine B (SRB) assay was used to estimate cell viability or growth via optical measurements.
(§2) From the measurements, the following values were determined: 1) the concentration of Compound 1 at which a tumor cell growth inhibition of 50% (relative to control) occurs (GI50), 2) the concentration of Compound 1 at which no growth occurs (total growth inhibition, TGI), and 3) the concentration of Compound 1 at which the […] (LC 50). […] FIG. 6 illustrates, graphically, tumor cell growth as a function of Compound 1 concentration of the scanned tumor cell lines.

OVCAR-3 = assay: NCI in vitro SRB assay, Ovarian Cancer
Description: as §1, §2

OVCAR-4 = assay: NCI in vitro SRB assay, Ovarian Cancer
Description: as §1, §2

OVCAR-5 = assay: NCI in vitro SRB assay, Ovarian Cancer
Description: as §1, §2

OVCAR-8 = assay: NCI in vitro SRB assay, Ovarian Cancer
Description: as §1, §2

SK-OV-3 = assay: NCI in vitro SRB assay, Ovarian Cancer
Description: as §1, §2

DU-145 = assay: NCI in vitro SRB assay, Prostate Cancer; conditions: for GI50: Homo sapiens
Description: as §1, §2

PC-3 = assay: NCI in vitro SRB assay, Prostate Cancer; conditions: for CC50 / GI50: Homo sapiens
Description: as §1, §2

## CCCC1(CCC)CCC2(CCN(CCCN(CC)CC)C2)CC1.O=C(O)/C=C\C(=O)O.O=C(O)/C=C\C(=O)O [Compound 1, N,N,-diethyl-8,8-dipropyl-2-azaspiro[4,5]decane-2-propanamine dimaleate]
CaCo-2 cells [1]
  pIC50: 5.90 to 6.20
CaCo-2 cells [2]; 5 μM, read-out: % Inhibition of Proliferation at 5 μM Compound
  inhibition at 5 µM: 85%
CaCo-2 cells [2]
  pIC50: ~5.60
IGROV1; Homo sapiens, IGROV-1, read-out: Log10 LC50 (converted)
  CC50: > 100000 nM
IGROV1; Homo sapiens, IGROV-1, IGROV1, read-out: Log10 GI50 (converted)
  GI50: 2450 nM
IGROV1; IGROV1
  Log10 TGI: >−4.00
OVCAR-3
  Log10 TGI: −5.21
OVCAR-3; Homo sapiens, read-out: Log10 GI50 (converted)
  GI50: 2340 nM
OVCAR-4; Homo sapiens, OVCAR-4, read-out: Log10 LC50 (converted)
  CC50: 6610 nM
OVCAR-4; Homo sapiens, OVCAR-4, read-out: Log10 GI50 (converted)
  GI50: 1620 nM
OVCAR-4; OVCAR-4
  Log10 TGI: −5.49
OVCAR-5; Homo sapiens, OVCAR-5, read-out: Log10 LC50 (converted)
  CC50: 7080 nM
OVCAR-5; Homo sapiens, OVCAR-5, read-out: Log10 GI50 (converted)
  GI50: 2400 nM
OVCAR-5; OVCAR-5
  Log10 TGI: −5.39
OVCAR-8; Homo sapiens, OVCAR-8, read-out: Log10 LC50 (converted)
  CC50: > 100000 nM
OVCAR-8; Homo sapiens, OVCAR-8, read-out: Log10 GI50 (converted)
  GI50: 2690 nM
OVCAR-8; OVCAR-8
  Log10 TGI: −4.92
SK-OV-3; Homo sapiens, SK-OV-3, read-out: Log10 LC50 (converted)
  CC50: 58900 nM
SK-OV-3; Homo sapiens, SK-OV-3, read-out: Log10 GI50 (converted)
  GI50: 4570 nM
SK-OV-3; SK-OV-3
  Log10 TGI: −5.10
DU-145
  Log10 TGI: −5.51
  TGI: 3090 nM
DU-145; read-out: GI50
  GI50: 1700 nM
DU-145; read-out: Log10 GI50 (converted)
  GI50: 1700 nM
DU-145; Log10 conc -4.0 Moles/L
  Mean Optical Densities: −0.032
  Percent Growth: −100%
DU-145; Log10 conc -5.0 Moles/L
  Mean Optical Densities: 0.005
  Percent Growth: −98%
DU-145; Log10 conc -6.0 Moles/L
  Mean Optical Densities: 0.733
  Percent Growth: 94%
DU-145; Log10 conc -7.0 Moles/L
  Mean Optical Densities: 0.766
  Percent Growth: 101%
DU-145; Log10 conc -8.0 Moles/L
  Mean Optical Densities: 0.728
  Percent Growth: 93%
PC-3; PC-3, read-out: LC50
  CC50: 6680 nM
PC-3; PC-3, read-out: Log10 LC50 (converted)
  CC50: 6610 nM
PC-3; PC-3, read-out: GI50
  GI50: 1710 nM
PC-3; PC-3, read-out: Log10 GI50 (converted)
  GI50: 1700 nM
PC-3; PC-3
  Log10 TGI: −5.47
  TGI: 3380 nM
PC-3; PC-3, Log10 conc -4.0 Moles/L
  Mean Optical Densities: 0.037
  Percent Growth: −90%
PC-3; PC-3, Log10 conc -5.0 Moles/L
  Mean Optical Densities: 0.073
  Percent Growth: −80%
PC-3; PC-3, Log10 conc -6.0 Moles/L
  Mean Optical Densities: 1.953
  Percent Growth: 89%
PC-3; PC-3, Log10 conc -7.0 Moles/L
  Mean Optical Densities: 2.067
  Percent Growth: 96%
PC-3; PC-3, Log10 conc -8.0 Moles/L
  Mean Optical Densities: 2.116
  Percent Growth: 99%
